The numbers were not newly measured in patent US9554996B2, “Compositions and methods for delivery of poorly soluble drugs” (Nanotherapeutics, Inc., priority 2007, dated 2017), which cites them from elsewhere.

Counter-ions that a name gives are not always drawn.

The solubility is the dissolved amount per volume that the medium holds.

For the data set the following is noted: water.

`COc1ccc2c3c1O[C@H]1C(=O)CC[C@@]4(O)[C@@H](C2)N(C)CC[C@]314` [oxycodone hydrochloride, oxycodone]: the “solubility at neutral pH” value was 100 mg/ml.
